Data taken from US20220402882A1, “HERBICIDAL COMPOUNDS” (SYNGENTA CROP PROTECTION AG, priority 2019, published 2022).

Legend:
Type in all cases: in vivo
Conditions in all cases: 125 g/h, evaluated after 13 days
[1] = test system: Ipomoea hederacea (IPOHE); assay: Pre-emergence glasshouse herbicide test
Method: (§1) Seeds of a variety of test species are sown in standard soil in pots (Lolium perenne (LOLPE), Amaranthus retoflexus (AMARE), Abutilon theophrasti (ABUTH), Setaria faberi (SETFA), Echinochloa crus-galli (ECHCG), Ipomoea hederacea (IPOHE)). After cultivation for one day (pre-emergence) or after 8 days cultivation (post-emergence) under controlled conditions in a glasshouse (at 24/16° C., day/night; 14 hours light; 65% humidity), the plants are sprayed with an aqueous spray solution derived from the formulation of the technical active ingredient in acetone/water (50:50) solution containing 0.5% Tween™ 20 (polyoxyethelyene sorbitan monolaurate, CAS RN 9005-64-5). Compounds are applied at 125 g/h unless otherwise indicated. The test plants are then grown in a glasshouse under controlled conditions in a glasshouse (at 24/16° C., day/night; 14 hours light; 65% humidity) and watered twice daily. After 13 days for pre- and post-emergence, the test is evaluated for the percentage damage caused to the plant. The biological activities are shown in the following table on a five-point scale (5=80-100%; 4=60-79%; 3=40-59%; 2=20-39%; 1=0-19%).

[2] = test system: Setaria faberi (SETFA); assay: Pre-emergence glasshouse herbicide test
Method: as §1

[3] = test system: Amaranthus retoflexus (AMARE); assay: Pre-emergence glasshouse herbicide test
Method: as §1

[4] = test system: Abutilon theophrasti (ABUTH); assay: Pre-emergence glasshouse herbicide test
Method: as §1

[5] = test system: Echinochloa crus-galli (ECHCG); assay: Pre-emergence glasshouse herbicide test
Method: as §1

[6] = test system: Ipomoea hederacea (IPOHE); assay: Post-emergence glasshouse herbicide test
Method: as §1

[7] = test system: Setaria faberi (SETFA); assay: Post-emergence glasshouse herbicide test
Method: as §1

[8] = test system: Amaranthus retoflexus (AMARE); assay: Post-emergence glasshouse herbicide test
Method: as §1

[9] = test system: Abutilon theophrasti (ABUTH); assay: Post-emergence glasshouse herbicide test
Method: as §1

[10] = test system: Echinochloa crus-galli (ECHCG); assay: Post-emergence glasshouse herbicide test
Method: as §1

Row | Compound | percentage damage caused to the plant, IPOHE [1] | percentage damage caused to the plant, SETFA [2] | percentage damage caused to the plant, AMARE [3] | percentage damage caused to the plant, ABUTH [4] | percentage damage caused to the plant, ECHCG [5] | percentage damage caused to the plant, IPOHE [6] | percentage damage caused to the plant, SETFA [7] | percentage damage caused to the plant, AMARE [8] | percentage damage caused to the plant, ABUTH [9] | percentage damage caused to the plant, ECHCG [10]
1 | CCS(=O)(=O)c1c(OCC(F)(F)F)ccc(C(=O)Nc2nnc(C)o2)c1C [Compound 2.018] | 4 (4=60-79%) | 5 (5=80-100%) | 5 (5=80-100%) | 5 (5=80-100%) | 5 (5=80-100%) | 5 (5=80-100%) | 5 (5=80-100%) | 5 (5=80-100%) | 5 (5=80-100%) | 5 (5=80-100%)
2 | CCS(=O)(=O)c1c(OC(F)(F)F)ccc(C(=O)Nc2nnc(C)o2)c1C [Compound 2.011] | 5 (5=80-100%) | 5 (5=80-100%) | 5 (5=80-100%) | 5 (5=80-100%) | 5 (5=80-100%) | 4 (4=60-79%) | 5 (5=80-100%) | 5 (5=80-100%) | 5 (5=80-100%) | 5 (5=80-100%)
3 | CCn1nnnc1NC(=O)c1ccc(OC(F)(F)F)c(S(=O)(=O)CC)c1C [Compound 1.046] | 5 (5=80-100%) | 5 (5=80-100%) | 5 (5=80-100%) | 5 (5=80-100%) | 5 (5=80-100%) | 5 (5=80-100%) | 5 (5=80-100%) | 5 (5=80-100%) | 5 (5=80-100%) | 5 (5=80-100%)
4 | CCn1nnnc1NC(=O)c1ccc(OC(F)F)c(S(=O)(=O)CC(C)C)c1Cl [Compound 1.053] | 4 (4=60-79%) | 5 (5=80-100%) | 5 (5=80-100%) | 5 (5=80-100%) | 5 (5=80-100%) | 5 (5=80-100%) | 5 (5=80-100%) | 5 (5=80-100%) | 5 (5=80-100%) | 5 (5=80-100%)
5 | CCS(=O)(=O)c1c(OC(F)F)ccc(C(=O)Nc2nnnn2C)c1C [Compound 1.031] | 5 (5=80-100%) | 5 (5=80-100%) | 5 (5=80-100%) | 5 (5=80-100%) | 5 (5=80-100%) | 5 (5=80-100%) | 5 (5=80-100%) | 5 (5=80-100%) | 5 (5=80-100%) | 5 (5=80-100%)
6 | CCn1nnnc1NC(=O)c1ccc(OCC(F)(F)F)c(S(=O)(=O)CC)c1C [Compound 1.063] | 4 (4=60-79%) | 5 (5=80-100%) | 5 (5=80-100%) | 5 (5=80-100%) | 5 (5=80-100%) | 3 (3=40-59%) | 5 (5=80-100%) | 5 (5=80-100%) | 5 (5=80-100%) | 5 (5=80-100%)
7 | CCSc1c(OC(F)F)ccc(C(=O)Nc2nnc(C)o2)c1Cl [Compound 2.012] | 3 (3=40-59%) | 5 (5=80-100%) | 5 (5=80-100%) | 4 (4=60-79%) | 5 (5=80-100%) | 4 (4=60-79%) | 5 (5=80-100%) | 5 (5=80-100%) | 5 (5=80-100%) | 5 (5=80-100%)
8 | CCCS(=O)(=O)c1c(OC(F)F)ccc(C(=O)Nc2nnnn2CC)c1Cl [Compound 1.051] | 4 (4=60-79%) | 5 (5=80-100%) | 5 (5=80-100%) | 5 (5=80-100%) | 5 (5=80-100%) | 4 (4=60-79%) | 5 (5=80-100%) | 5 (5=80-100%) | 5 (5=80-100%) | 5 (5=80-100%)
9 | CC[S+]([O-])c1c(OCC(F)(F)F)ccc(C(=O)Nc2nnnn2C)c1Cl (stereo not drawn) [Compound 1.036] | 4 (4=60-79%) | 5 (5=80-100%) | 5 (5=80-100%) | 5 (5=80-100%) | 5 (5=80-100%) | 5 (5=80-100%) | 5 (5=80-100%) | 5 (5=80-100%) | 5 (5=80-100%) | 5 (5=80-100%)
10 | CCSc1c(OCC(F)(F)F)ccc(C(=O)Nc2nnnn2C)c1C [Compound 1.038] | 2 (2=20-39%) | 2 (2=20-39%) | 5 (5=80-100%) | 4 (4=60-79%) | 2 (2=20-39%) | 4 (4=60-79%) | 5 (5=80-100%) | 5 (5=80-100%) | 5 (5=80-100%) | 5 (5=80-100%)
11 | CCCSc1c(OC(F)F)ccc(C(=O)Nc2nnnn2C)c1Cl [Compound 1.066] | 3 (3=40-59%) | 5 (5=80-100%) | 5 (5=80-100%) | 5 (5=80-100%) | 5 (5=80-100%) | 5 (5=80-100%) | 4 (4=60-79%) | 5 (5=80-100%) | 5 (5=80-100%) | 4 (4=60-79%)
12 | CCS(=O)(=O)c1cc(C(=O)Nc2nnnn2C)ccc1OC(F)F [Compound 1.025] | 4 (4=60-79%) | 5 (5=80-100%) | 5 (5=80-100%) | 5 (5=80-100%) | 5 (5=80-100%) | 5 (5=80-100%) | 5 (5=80-100%) | 5 (5=80-100%) | 5 (5=80-100%) | 5 (5=80-100%)
